What was measured:
[1] = molecular target: T1, Bromodomain-containing protein 4 (Homo sapiens, UniProt O60885); test: Inhibition of recombinant human BRD4 BD2 measured after 2 hrs by TR-FRET assay
[2] = molecular target: Poly [ADP-ribose] polymerase 1 (Homo sapiens) (UniProt P09874); test: Inhibition of PARP1 (unknown origin) using NAD+ as substrate incubated for 60 mins by ELISA
[3] = molecular target: T1, Bromodomain-containing protein 4; test: Inhibition of recombinant human BRD4 BD1 measured after 2 hrs by TR-FRET assay
[4] = molecular target: T1, Bromodomain-containing protein 4; test: Binding affinity to BRD4 BD1 (unknown origin) assessed as dissociation constant by ITC analysis
[5] = molecular target: T1, Bromodomain-containing protein 4; test: Binding affinity to BRD4 BD2 (unknown origin) assessed as dissociation constant by ITC analysis
[6] = molecular target: von Hippel-Lindau disease tumor suppressor/Bromodomain-containing protein 4 (Homo sapiens, UniProt O60885+P40337); test: Protac activity at BRD4/VHL E3 ligase in human SU-DHL-4 cells assessed as induction of BRD4 degradation incubated for 14 hrs by immunoblot analysis; format: cell-based
Chain of von Hippel-Lindau disease tumor suppressor/Bromodomain-containing protein 4 (P40337 whole entry, looked up, other chains not shown, the tested form may be a part): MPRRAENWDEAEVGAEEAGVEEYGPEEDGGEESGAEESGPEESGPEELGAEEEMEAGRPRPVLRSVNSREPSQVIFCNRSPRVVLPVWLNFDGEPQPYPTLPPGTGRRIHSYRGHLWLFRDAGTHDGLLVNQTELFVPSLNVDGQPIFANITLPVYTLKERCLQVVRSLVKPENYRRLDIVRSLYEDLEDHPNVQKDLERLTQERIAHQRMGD

[7] = molecular target: T1, Bromodomain-containing protein 4; test: Inhibition of GST-tagged BRD4 BD1 (unknown origin) using H4(1 to 21 residues) biotinylated peptide as substrate at 10 uM incubated for 3 hrs by HTFR assay
[8] = molecular target: Histone deacetylase 3 (Homo sapiens, UniProt O15379); test: Inhibition of recombinant human HDAC3 using Boc-Lys(Ac)-AMC as substrate preincubated for 15 mins followed by substrate addition and measured after 60 mins by fluorescence based assay
Chain of Histone deacetylase 3 (O15379 whole entry, the tested form may be a part): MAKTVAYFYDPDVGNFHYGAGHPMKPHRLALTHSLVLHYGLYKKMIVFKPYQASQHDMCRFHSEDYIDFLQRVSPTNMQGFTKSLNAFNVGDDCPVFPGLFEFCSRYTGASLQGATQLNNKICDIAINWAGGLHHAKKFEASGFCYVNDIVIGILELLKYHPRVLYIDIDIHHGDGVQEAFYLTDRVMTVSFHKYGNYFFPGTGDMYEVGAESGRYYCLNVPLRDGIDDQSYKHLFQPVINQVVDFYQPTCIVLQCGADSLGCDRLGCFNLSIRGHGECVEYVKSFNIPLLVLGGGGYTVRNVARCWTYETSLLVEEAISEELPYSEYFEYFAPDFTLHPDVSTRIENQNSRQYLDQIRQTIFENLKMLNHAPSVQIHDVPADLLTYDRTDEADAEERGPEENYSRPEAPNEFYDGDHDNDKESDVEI

[9] = molecular target: T1, Bromodomain-containing protein 4; test: Inhibition of poly His-tagged BRD4 BD2 (unknown origin) (348 to 455 residues) by TR-FRET assay
[10] = molecular target: T1, Bromodomain-containing protein 4; test: Inhibition of poly His-tagged BRD4 BD1 (unknown origin) ([…] residues) by TR-FRET assay
[11] = molecular target: Protein cereblon/Bromodomain-containing protein 4 (Homo sapiens, UniProt O60885+Q96SW2); test: Protac activity at CRBN/BRD4 in human SUM149PT assessed as induction of BRD4 degradation incubated for 18 hrs by immunoblot analysis; format: cell-based
Chain of Protein cereblon/Bromodomain-containing protein 4 (Q96SW2 whole entry, looked up, other chains not shown): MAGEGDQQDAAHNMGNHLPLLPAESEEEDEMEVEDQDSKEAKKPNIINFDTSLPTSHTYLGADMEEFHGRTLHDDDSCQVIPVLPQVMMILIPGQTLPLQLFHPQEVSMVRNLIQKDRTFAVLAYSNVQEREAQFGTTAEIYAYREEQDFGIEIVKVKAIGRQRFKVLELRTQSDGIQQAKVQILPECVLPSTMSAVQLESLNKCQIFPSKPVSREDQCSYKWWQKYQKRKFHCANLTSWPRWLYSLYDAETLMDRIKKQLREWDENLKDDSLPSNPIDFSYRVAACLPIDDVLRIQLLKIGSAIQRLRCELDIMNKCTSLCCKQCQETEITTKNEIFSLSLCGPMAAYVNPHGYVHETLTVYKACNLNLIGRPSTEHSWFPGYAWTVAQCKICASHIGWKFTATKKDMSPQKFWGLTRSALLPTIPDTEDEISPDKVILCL

[12] = organism: Homo sapiens; test: Selectivity for BRD4 BD1 (unknown origin) over BRD4 BD2 (unknown origin) assessed as fold change
[13] = Antiproliferative activity against human Triple-negative breast cancer cells assessed as cell growth inhibition incubated for 4 days by CellTiter Glo assay; format: functional, cell-based; details: 96 h
[14] = molecular target: T1, Bromodomain-containing protein 4; test: Inhibition of poly His-tagged BRD4 BD2 (unknown origin) (348 to 455 residues) by BROMOscan assay
[15] = molecular target: T1, Bromodomain-containing protein 4; test: Inhibition of poly His-tagged BRD4 BD1 (unknown origin) ([…] residues) by BROMOscan assay

Chain of Poly [ADP-ribose] polymerase 1 (Homo sapiens) (P09874 whole entry): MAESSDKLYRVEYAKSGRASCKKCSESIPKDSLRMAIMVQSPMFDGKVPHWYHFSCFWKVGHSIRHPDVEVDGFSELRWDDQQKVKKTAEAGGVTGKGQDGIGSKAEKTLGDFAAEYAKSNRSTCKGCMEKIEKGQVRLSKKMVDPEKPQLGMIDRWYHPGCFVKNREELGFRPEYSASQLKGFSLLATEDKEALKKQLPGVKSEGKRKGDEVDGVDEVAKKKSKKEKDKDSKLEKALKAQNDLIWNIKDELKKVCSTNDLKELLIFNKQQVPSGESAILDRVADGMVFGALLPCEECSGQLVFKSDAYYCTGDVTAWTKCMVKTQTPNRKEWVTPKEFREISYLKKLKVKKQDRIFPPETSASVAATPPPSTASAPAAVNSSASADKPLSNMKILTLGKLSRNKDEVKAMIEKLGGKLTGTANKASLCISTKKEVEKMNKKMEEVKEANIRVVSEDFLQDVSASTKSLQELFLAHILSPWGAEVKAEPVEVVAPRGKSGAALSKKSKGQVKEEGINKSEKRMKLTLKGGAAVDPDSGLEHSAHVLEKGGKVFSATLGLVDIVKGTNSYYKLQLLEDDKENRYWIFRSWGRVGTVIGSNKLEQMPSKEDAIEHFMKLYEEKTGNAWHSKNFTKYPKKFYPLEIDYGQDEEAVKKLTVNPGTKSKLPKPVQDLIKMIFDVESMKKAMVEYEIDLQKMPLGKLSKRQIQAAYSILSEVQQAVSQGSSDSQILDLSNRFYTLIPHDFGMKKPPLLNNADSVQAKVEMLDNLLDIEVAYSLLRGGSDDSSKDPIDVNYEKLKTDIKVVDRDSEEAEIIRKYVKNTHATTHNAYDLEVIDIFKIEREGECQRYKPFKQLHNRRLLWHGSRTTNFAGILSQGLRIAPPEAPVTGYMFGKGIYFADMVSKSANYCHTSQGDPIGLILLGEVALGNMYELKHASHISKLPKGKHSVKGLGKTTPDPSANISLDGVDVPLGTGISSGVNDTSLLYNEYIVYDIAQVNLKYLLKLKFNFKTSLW

In the case of `COc1cc(OC)c2c(=O)[nH]c(-c3ccc(OCCOc4ccccc4C(N)=O)cc3)nc2c1`, the IC50 [1] is reported as 379 nM, the inhibition [2] is reported as less than 60% and the IC50 [3] is reported as 440 nM.
In the case of `CC1=C(C)C2C(c3ccc(Cl)cc3)N[C@@](C)(CC(=O)NCCOCCOCCOCC(=O)N[C@H](C(=O)N3C[C@H](O)C[C@H]3C(=O)NCc3ccc(-c4scnc4C)cc3)C(C)(C)C)c3nnc(C)n3C2S1` (some centres not stated), the Kd [4] is reported as 382 nM and the Kd [5] is reported as 120 nM.
Compound `Cc1sc2c(c1C)C(c1ccc(Cl)cc1)=N[C@@H](CC(=O)NCCOCCOCCNC(=O)c1cccc(S(=O)(=O)Nc3ccc(C)c4c(C#N)c[nH]c34)c1)c1nnc(C)n1-2` has a DC50 [6] of 10800 nM.
`Cc1noc(C)c1-c1ccc2c(c1)C(Cc1ccc(F)cc1)CN2CCCCCCC(=O)NO` (configuration not stated) showed an inhibition [7] of 88% and an IC50 [8] of 5 nM.
Compound `CC(=O)N1c2ccc(-c3cc[nH]n3)cc2[C@H](Nc2ccc(C#N)cc2)C[C@@H]1C` has a Kd [9] of 2 nM and a Kd [10] of 301 nM.
`Cc1sc2c(c1C)C(c1ccc(Cl)cc1)=N[C@@H](CC(=O)NCCCCNC(=O)COc1cccc3c1C(=O)N(C1CCC(=O)NC1=O)C3O)c1nnc(C)n1-2` (some centres not stated) gave an EC50 [11] of 430 nM.
`CC(=O)Nc1c(F)cc(C(=O)N[C@H]2CC[C@H](O)CC2)cc1O[C@@H](C)c1ccccc1` gave a Selectivity ratio [12] greater than 300.
With `COCc1nc2cnc3cc(-c4c(C)noc4C)c(OC[C@H]4CCNC4)cc3c2n1[C@H](C)c1ccccc1` the Selectivity ratio [12] was greater than 130.
With `CCn1nc(C2CC2)cc1Nc1nc(C(=O)NCCCOCCOCCOCCCNc2cccc3c2C(=O)N(C2CCC(=O)NC2=O)C3=O)nc2[nH]c3cc(-c4c(C)noc4C)c(OC)cc3c12` (configuration not stated) the IC50 [13] was less than 10 nM.
Compound `COC(=O)c1ccc(N[C@@H]2C[C@H](C)N(C(C)=O)c3ccc(-c4cccc(NC(C)=O)c4)cc32)cc1` has an IC50 [14] of 0.42 nM and an IC50 [15] of 27 nM.
`CC(=O)N[C@H](CSCCCCCCNC(=O)C[C@H]1N=C(c2ccc(Cl)cc2)c2c(sc(C)c2C)-n2c(C)nnc21)C(=O)N1C[C@@H](O)C[C@@H]1C(=O)NCc1ccc(-c2scnc2C)cc1` gave a Kd [4] of 44 nM.

From ChEMBL document CHEMBL5226295, “Targeting Bromodomain and Extraterminal Proteins for Drug Discovery: From Current Progress to Technological Development” (J Med Chem, 2021)
